From patent US4665056A, “Dihydroorotic acid derivative and processes for preparing the same” (Tanabe Seiyaku Co., Ltd., priority 1984, dated 1987)

What was measured:
male STD/ddY mice [1] = assay: Antagonistic effect on reserpine-induced hypothermia, intraperitoneal administration; type: in vivo; settings: TRH taken as 1, parallel line assay method
Description: (§1) A test compound dissolved in distilled water was orally administered to the mice, and the rectal temperature was measured 30, 60, 120, 180 and 300 minutes after the administration of the test compound. The increase in the body temperature of the medicated group of mice was compared with that of the control group of mice which received distilled water instead of the test compound solution.
(§2) The pharmacological activities of test compounds estimated by parenteral administration.
(§3) The experiments were carried out in the same manner as described in Experiment 1 except that a test compound dissolved in a physiological saline solution was administered intraperitoneally to mice and, in estimating the increasing effect on spontaneous locomotor activity, said spontaneous locomotor activity was measured for 60 minutes immediately after administration of the test compound.

male STD/ddY mice [2] = assay: Increasing effect on spontaneous locomotor activity, intraperitoneal administration; type: in vivo; settings: measured for 60 minutes, TRH taken as 1
Description: (§4) Male STD/ddY mice were individually placed in Ambulometer (i.e., an apparatus for measuring spontaneous locomotor activity; manufactured by OHARA IKA Co.) for 30 minutes to acclimatize to the apparatus. Thereafter, a test compound dissolved in distilled water was orally administered to the mice and, immediately after administration of the test compound, the spontaneous locomotor activity was measured for 3 hours. Distilled water was administered to the control group of mice instead of the test compound solution.
as §2, §3

male STD/ddY mice [3] = settings: published data (Brain Research Reviews 4, 389 (1982)); cited from earlier work
male STD/ddY mice [4] = assay: Antagonistic effect on pentobarbital anesthesia, intravenous administration; type: in vivo; settings: intravenous administration 10 min after pentobarbital sodium 55 mg/kg i.p., TRH taken as 1
Description: as §2
Pentobarbital sodium was intraperitoneally administered to male STD/ddY mice at a dose of 55 mg/kg. Ten minutes after the administration of pentobarbital sodium, a test compound dissolved in a physiological saline solution was intravenously administered to the mice which had lost the righting reflex. The duration of anesthesia was measured as the time from the end of administration of the test compound until the righting reflex regained. A physiological saline solution was administered to the control group of mice instead of the test compound solution.

male STD/ddY mice [5] = assay: Potentiating effect on action of Dopamine (L-Dopa in reserpinized mice); type: in vivo; settings: intraperitoneal administration, reserpine 3 mg/kg s.c. and L-Dopa 200 mg/kg i.p., TRH taken as 1
Description: as §2
Reserpine was subcutaneously administered to male STD/ddY mice at a dose of 3 mg/kg, and about 16 to 20 hours later, L-Dopa was intraperitoneally administered to the mice at a dose of 200 mg/kg. Thirty minutes after administration of L-Dopa, a test compound dissolved in a physiological saline solution was administered intraperitoneally to the mice (when TRH was used as the test compound, it was administered 45 minutes after administration of L-Dopa). Spontaneous locomotor activity was measured by ANIMEX (i.e., an apparatus for mesuring spontaneous locomotor activity; manufactured by FERAD Co.) for 15 minutes starting from one hour after administration of L-Dopa. A physiological saline solution was administered to the control group of mice instead of the test compound solution.

male STD/ddY mice [6] = assay: Antagonistic effect on reserpine-induced hypothermia, oral administration; type: in vivo; settings: TRH tartrate taken as 1, parallel line assay method
Description: (§5) The pharmacological activities of test compounds estimated by oral administration.
as §1

male JCL:SD rats [7] = settings: TRH taken as 1; cited from earlier work
male STD/ddY mice [8] = assay: Increasing effect on spontaneous locomotor activity, oral administration; type: in vivo; settings: activity measured for 3 hours
Description: as §5, §4

male STD/ddY mice [9] = assay: Antagonistic effect on pentobarbital anesthesia, oral administration; type: in vivo; settings: oral administration 15 min before pentobarbital sodium 55 mg/kg i.p.
Description: as §5
A test compound dissolved in distilled water was orally administered to male STD/ddY mice. Fifteen minutes after the administration of the test compound, pentobarbital sodium was intraperitoneally administered to the mice at a dose of 55 mg/kg. The duration of anesthesia was measured as the time from the disappearance of righting reflex to the recovery thereof. Distilled water was administered to the control group of mice instead of the test compound solution.

male JCL:SD rats [10] = assay: TSH-releasing activity (side effect), serum TSH by radioimmunoassay; type: in vivo; settings: intravenous administration, serum TSH 15 min after, TRH taken as 1, parallel line assay method
Description: A test compound dissolved in a 0.1% BSA (bovine serum albumin)-containing physiological saline solution was intravenously administered to male JCL:SD rats. Fifteen minutes after the administration, blood was taken from the abdominal aorta under anesthesia. Serum TSH levels were determined by the double-antibody radioimmunoassay method (Midgley et al., Endocrinology., 79, 10 (1966)). The BSA-containing physiological saline solution was administered to the control group of rats instead of the test compound solution.

male STD/ddY mice [11] = assay: Acute toxicity (LD50), intravenous; type: in vivo; settings: mortality 24 hours after administration
Description: A test compound was intravenously administered to male STD/ddY mice and the acute toxicity (LD50) thereof was determined from mortality of mice 24 hours after administration of the test compound.

SMILES | Potency ratio to TRH, antagonistic effect on reserpine-induced hypothermia (male STD/ddY mice [1]) | Potency ratio to TRH, increasing effect on spontaneous locomotor activity (male STD/ddY mice [2]) | LD50 (published data) (male STD/ddY mice [3]) | Potency ratio to TRH, antagonistic effect on pentobarbital anesthesia (male STD/ddY mice [4]) | Potency ratio to TRH, potentiating effect on action of Dopamine (male STD/ddY mice [5]) | Potency ratio to TRH tartrate, antagonistic effect on reserpine-induced hypothermia (male STD/ddY mice [6]) | Potency ratio to TRH, TSH-releasing activity (published data) (male JCL:SD rats [7]) | Therapeutic activity by oral administration | Minimum effective dose, increasing effect on spontaneous locomotor activity (male STD/ddY mice [8]) | Minimum effective dose, antagonistic effect on pentobarbital anesthesia (male STD/ddY mice [9]) | Potency ratio to TRH, TSH-releasing activity (male JCL:SD rats [10]) | LD50 (male STD/ddY mice [11])
NC(=O)[C@@H]1CCCN1C(=O)[C@H](Cc1c[nH]cn1)NC(=O)c1cc(=O)[nH]c(=O)[nH]1 [No. 2, Orotyl-L-histidyl-L-prolinamide] | 7.4 | 3.8 | 1200 mg/kg, i.v. | 1.9 | 2.6 | 13.0 | – | – | – | – | – | –
NC(=O)[C@@H]1CCCN1C(=O)[C@H](Cc1c[nH]cn1)NC(=O)[C@@H]1CCC(=O)O1 [No. 1, (2,3,4,5-tetrahydro-2-oxo-L-5-furancarbonyl)-L-histidyl-L-prolinamide] | 5.7 | 3.5 | – | 1.3 | 2.5 | 3.4 | 1/40 | – | – | – | – | –
NC(=O)[C@@H]1CCCN1C(=O)[C@H](Cc1cnc[nH]1)NC(=O)[C@@H]1CCC(=O)N1 [TRH, L-pyroglutamyl-L-histidyl-L-prolinamide] | – | – | 1450 mg/kg, i.v. | – | – | – | – | no substantial therapeutic effects | – | – | – | –
NC(=O)[C@@H]1CCCN1C(=O)[C@H](Cc1cnc[nH]1)NC(=O)[C@@H]1CCC(=O)N1.O=C(O)C(O)C(O)C(=O)O [TRH tartrate] | – | – | – | – | – | – | – | – | > 100 mg/kg | > 100 mg/kg | – | –
CN1C(=O)C[C@@H](C(=O)N[C@@H](Cc2c[nH]cn2)C(=O)N2CCC[C@H]2C(N)=O)NC1=O [The compound of the present invention, (1-methyl-L-4,5-dihydroorotyl)-L-histidyl-L-prolinamide] | 31.4 | 27.4 | – | 2.7 | 18.5 | 91.3 | – | excellent therapeutic activity even by oral administration | 10 mg/kg | 1 mg/kg | 1/30 | 1589 mg/kg, i.v.
